Reference: ChEMBL document CHEMBL2440066, “Acidic biphenyl derivatives: synthesis and biological activity of a new series of potent 5-HT(4) receptor antagonists” (Bioorg Med Chem, 2013)

System: Rattus norvegicus
Test: Cmax in Sprague-Dawley rat assessed as 4'-((4-(((3,4-Dihydro-2H-[1,3]oxazino[3,2-a]indole-10-carbonyl)oxy)methyl)piperidin-1-yl)methyl)[1,1'-biphenyl]-2-carboxylic acid level at 10 mg/kg, po
Format: ADME, organism-based
Design: dose 10 mg/kg, route oral
Conditions: in vivo

Point of comparison: CCCCOC(=O)c1ccccc1-c1ccc(CN2CCC(COC(=O)c3c4n(c5ccccc35)CCCO4)CC2)cc1.CS(=O)(=O)O, Cmax 10 ng/mL. Against it:
- COC(=O)c1ccccc1-c1ccc(CN2CCC(COC(=O)c3c4n(c5ccccc35)CCCO4)CC2)cc1.CS(=O)(=O)O — 3-fold higher, 30 ng/mL

Biological target: 5-hydroxytryptamine receptor 4 (Rattus norvegicus) (UniProt Q62758)
Sequence (Q62758 whole entry): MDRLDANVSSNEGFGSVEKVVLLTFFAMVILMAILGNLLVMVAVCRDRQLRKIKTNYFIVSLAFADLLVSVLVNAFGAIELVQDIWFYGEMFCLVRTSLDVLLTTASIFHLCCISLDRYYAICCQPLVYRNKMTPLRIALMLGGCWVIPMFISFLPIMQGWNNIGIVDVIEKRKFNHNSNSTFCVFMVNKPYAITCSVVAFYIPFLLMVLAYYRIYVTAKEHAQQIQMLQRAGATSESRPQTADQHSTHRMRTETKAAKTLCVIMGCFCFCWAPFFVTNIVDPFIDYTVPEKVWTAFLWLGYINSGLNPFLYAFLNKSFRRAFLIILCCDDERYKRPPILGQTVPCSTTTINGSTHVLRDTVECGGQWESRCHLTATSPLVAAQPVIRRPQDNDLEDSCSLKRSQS
Test: Antagonist activity at 5-HT4 receptor in rat esophagus assessed as inhibition of 5-HT-induced relaxation
Format: tissue-based
Conditions: not given

Point of comparison: Cc1noc(-c2ccccc2NC(=O)OCC2CCN(CCNS(C)(=O)=O)CC2)n1, pKb 10.8. Against it:
- Cc1noc(-c2ccc(F)cc2NC(=O)OCC2CCN(CCNS(C)(=O)=O)CC2)n1 — lower, 8.9
- COc1ccc(NC(=O)OCC2CCN(CCNS(C)(=O)=O)CC2)c(-c2nc(C)no2)c1 — lower, 8.1

System: Rattus norvegicus
Test: Elimination half life in Sprague-Dawley rat assessed as 4'-((4-(((3,4-Dihydro-2H-[1,3]oxazino[3,2-a]indole-10-carbonyl)oxy)methyl)piperidin-1-yl)methyl)[1,1'-biphenyl]-2-carboxylic acid level at 10 mg/kg, po
Format: ADME, organism-based
Design: dose 10 mg/kg, route oral
Conditions: in vivo

Point of comparison: CCCCOC(=O)c1ccccc1-c1ccc(CN2CCC(COC(=O)c3c4n(c5ccccc35)CCCO4)CC2)cc1.CS(=O)(=O)O, “beta t1/2” value 9.92 h. Against it:
- COC(=O)c1ccccc1-c1ccc(CN2CCC(COC(=O)c3c4n(c5ccccc35)CCCO4)CC2)cc1.CS(=O)(=O)O — 1.6-fold higher, 15.6 h

System: Rattus norvegicus
Test: AUC (0 to 6 hrs) in Sprague-Dawley rat assessed as 4'-((4-(((3,4-Dihydro-2H-[1,3]oxazino[3,2-a]indole-10-carbonyl)oxy)methyl)piperidin-1-yl)methyl)[1,1'-biphenyl]-2-carboxylic acid level at 10 mg/kg, po
Format: ADME, organism-based, Plasma
Design: time < 6 hr, dose 10 mg/kg, route oral
Conditions: in vivo

Point of comparison: COC(=O)c1ccccc1-c1ccc(CN2CCC(COC(=O)c3c4n(c5ccccc35)CCCO4)CC2)cc1.CS(=O)(=O)O, AUC 114 ng·h/mL. Against it:
- CCCCOC(=O)c1ccccc1-c1ccc(CN2CCC(COC(=O)c3c4n(c5ccccc35)CCCO4)CC2)cc1.CS(=O)(=O)O — 2.9-fold lower, 39 ng·h/mL

System: not listed separately
Test: Cmax in Sprague-Dawley rat at 10 mg/kg, po
Format: ADME, organism-based
Design: dose 10 mg/kg, route oral
Conditions: in vivo

Point of comparison: COC(=O)c1ccccc1-c1ccc(CN2CCC(COC(=O)c3c4n(c5ccccc35)CCCO4)CC2)cc1.CS(=O)(=O)O, Cmax 244 ng/mL. Against it:
- CCCCOC(=O)c1ccccc1-c1ccc(CN2CCC(COC(=O)c3c4n(c5ccccc35)CCCO4)CC2)cc1.CS(=O)(=O)O — 3-fold lower, 80 ng/mL

System: Rattus norvegicus
Test: AUC (0 to infinity) in Sprague-Dawley rat assessed as 4'-((4-(((3,4-Dihydro-2H-[1,3]oxazino[3,2-a]indole-10-carbonyl)oxy)methyl)piperidin-1-yl)methyl)[1,1'-biphenyl]-2-carboxylic acid level at 10 mg/kg, po
Format: ADME, organism-based, Plasma
Design: time infinity, dose 10 mg/kg, route oral
Conditions: in vivo

Point of comparison: COC(=O)c1ccccc1-c1ccc(CN2CCC(COC(=O)c3c4n(c5ccccc35)CCCO4)CC2)cc1.CS(=O)(=O)O, AUC 542 ng·h/mL. Against it:
- CCCCOC(=O)c1ccccc1-c1ccc(CN2CCC(COC(=O)c3c4n(c5ccccc35)CCCO4)CC2)cc1.CS(=O)(=O)O — 4.4-fold lower, 124 ng·h/mL

System: not listed separately
Test: Apparent permeability of the compound in human Caco2 cells at 1 uM
Format: ADME, cell-based
Conditions: Caco-2

Point of comparison: CCCCOC(=O)c1ccccc1-c1ccc(CN2CCC(COC(=O)c3c4n(c5ccccc35)CCCO4)CC2)cc1.CS(=O)(=O)O, Papp at 1 µM 13.9 ×10⁻⁶ cm/s. Against it:
- CC(C)(C)C(=O)OCOC(=O)c1ccccc1-c1ccc(CN2CCC(COC(=O)c3c4n(c5ccccc35)CCCO4)CC2)cc1.CS(=O)(=O)O — 1.5-fold lower, 9 ×10⁻⁶ cm/s
- COC(=O)c1ccccc1-c1ccc(CN2CCC(COC(=O)c3c4n(c5ccccc35)CCCO4)CC2)cc1.CS(=O)(=O)O — 1.8-fold higher, 25 ×10⁻⁶ cm/s

System: 3T3-L1
Test: Cytotoxicity against mouse 3T3L1 cells assessed as cell death at 5 ug/ml after 72 hrs by neutral red assay
Format: cell-based
Conditions: 3t3-l1, 72 h

Work on COC(=O)c1ccccc1-c1ccc(CN2CCC(COC(=O)c3c4n(c5ccccc35)CCCO4)CC2)cc1.CS(=O)(=O)O yielded an Activity of 75%.

Biological target: T1, Type-1 angiotensin II receptor (Homo sapiens, UniProt P30556)
T1 sequence (P30556 whole entry): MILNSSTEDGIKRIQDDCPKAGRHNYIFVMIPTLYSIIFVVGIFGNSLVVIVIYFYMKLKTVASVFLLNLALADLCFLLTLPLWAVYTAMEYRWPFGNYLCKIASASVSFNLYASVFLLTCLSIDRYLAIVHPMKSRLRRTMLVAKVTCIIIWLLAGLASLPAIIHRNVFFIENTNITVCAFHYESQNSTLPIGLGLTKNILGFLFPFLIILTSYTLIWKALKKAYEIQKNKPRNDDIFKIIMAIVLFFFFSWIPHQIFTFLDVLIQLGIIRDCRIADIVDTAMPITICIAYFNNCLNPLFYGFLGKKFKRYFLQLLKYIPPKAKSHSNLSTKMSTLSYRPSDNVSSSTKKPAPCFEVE
Test: Displacement of [tyrosyl-3,5-3H]angiotensin-2 from AT1 receptor (unknown origin) expressed in QBI-HEK293A cells after 2 hrs
Format: cell-based, HEK293-A
Conditions: not given

Molecule COC(=O)c1ccccc1-c1ccc(CN2CCC(COC(=O)c3c4n(c5ccccc35)CCCO4)CC2)cc1.CS(=O)(=O)O has a Ki of over 10000 nM.

Biological target: Voltage-gated inwardly rectifying potassium channel KCNH2 (Homo sapiens, UniProt Q12809)
Sequence (Q12809 whole entry): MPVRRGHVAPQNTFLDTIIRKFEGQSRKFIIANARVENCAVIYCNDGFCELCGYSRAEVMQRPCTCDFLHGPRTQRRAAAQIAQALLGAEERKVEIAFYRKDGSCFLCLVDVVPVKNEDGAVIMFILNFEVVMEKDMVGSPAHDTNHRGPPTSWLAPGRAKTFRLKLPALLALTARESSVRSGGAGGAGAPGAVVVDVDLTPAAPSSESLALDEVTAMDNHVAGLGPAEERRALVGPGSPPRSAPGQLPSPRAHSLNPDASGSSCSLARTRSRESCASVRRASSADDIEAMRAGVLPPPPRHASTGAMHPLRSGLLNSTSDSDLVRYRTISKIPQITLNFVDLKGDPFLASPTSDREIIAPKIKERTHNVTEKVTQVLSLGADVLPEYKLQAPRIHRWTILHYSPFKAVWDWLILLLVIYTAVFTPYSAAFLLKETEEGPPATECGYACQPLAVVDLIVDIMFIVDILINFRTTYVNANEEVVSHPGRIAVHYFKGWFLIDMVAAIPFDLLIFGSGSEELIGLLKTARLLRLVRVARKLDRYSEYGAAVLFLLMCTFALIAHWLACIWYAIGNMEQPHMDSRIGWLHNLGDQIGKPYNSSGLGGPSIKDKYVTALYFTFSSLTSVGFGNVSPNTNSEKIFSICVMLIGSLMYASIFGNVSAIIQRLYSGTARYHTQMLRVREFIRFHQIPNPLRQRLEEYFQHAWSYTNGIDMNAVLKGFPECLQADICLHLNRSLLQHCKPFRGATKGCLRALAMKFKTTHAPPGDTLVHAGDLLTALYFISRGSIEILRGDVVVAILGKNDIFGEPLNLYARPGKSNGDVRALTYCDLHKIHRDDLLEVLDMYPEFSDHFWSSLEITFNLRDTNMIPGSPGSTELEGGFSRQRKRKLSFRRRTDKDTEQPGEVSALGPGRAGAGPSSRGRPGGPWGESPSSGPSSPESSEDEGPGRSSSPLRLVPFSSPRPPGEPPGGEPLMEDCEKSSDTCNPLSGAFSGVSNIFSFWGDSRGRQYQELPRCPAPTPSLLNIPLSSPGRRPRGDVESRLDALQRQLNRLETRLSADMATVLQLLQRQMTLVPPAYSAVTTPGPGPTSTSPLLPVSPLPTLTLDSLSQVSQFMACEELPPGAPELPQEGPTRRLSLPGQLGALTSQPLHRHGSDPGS
Test: Inhibition of human ERG expressed in HEK293 cells by patch-clamp technique
Format: cell-based
Conditions: not given

COC(=O)c1ccccc1-c1ccc(CN2CCC(COC(=O)c3c4n(c5ccccc35)CCCO4)CC2)cc1.CS(=O)(=O)O gave an IC50 of 131 nM.

Biological target: T2, 5-hydroxytryptamine receptor 4 (Homo sapiens, UniProt Q13639)
T2 sequence (Q13639 whole entry): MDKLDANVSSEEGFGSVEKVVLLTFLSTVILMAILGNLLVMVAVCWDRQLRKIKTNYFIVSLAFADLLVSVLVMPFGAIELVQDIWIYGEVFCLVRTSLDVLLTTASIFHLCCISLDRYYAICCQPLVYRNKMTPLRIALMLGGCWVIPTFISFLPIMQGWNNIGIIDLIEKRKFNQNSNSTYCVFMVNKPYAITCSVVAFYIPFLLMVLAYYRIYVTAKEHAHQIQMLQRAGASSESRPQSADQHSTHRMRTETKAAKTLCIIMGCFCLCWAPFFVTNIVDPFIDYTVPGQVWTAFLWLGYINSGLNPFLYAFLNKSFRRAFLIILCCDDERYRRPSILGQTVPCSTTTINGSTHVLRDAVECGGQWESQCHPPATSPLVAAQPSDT
Test: Antagonist activity at human 5HT4B receptor expressed in HEK293 cells assessed as inhibition of 5HT-stimulated adenylyl cyclase activity
Format: functional, cell-based
Conditions: not given

COC(=O)c1ccccc1-c1ccc(CN2CCC(COC(=O)c3c4n(c5ccccc35)CCCO4)CC2)cc1.CS(=O)(=O)O showed a pKb of 10.6.

System: not listed separately
Test: Tmax in Sprague-Dawley rat at 10 mg/kg, po
Format: ADME, organism-based
Design: dose 10 mg/kg, route oral
Conditions: in vivo

Point of comparison: CCCCOC(=O)c1ccccc1-c1ccc(CN2CCC(COC(=O)c3c4n(c5ccccc35)CCCO4)CC2)cc1.CS(=O)(=O)O, Tmax 6 h. Against it:
- COC(=O)c1ccccc1-c1ccc(CN2CCC(COC(=O)c3c4n(c5ccccc35)CCCO4)CC2)cc1.CS(=O)(=O)O — 3-fold lower, 2 h

System: not listed separately
Test: AUC (0 to 6 hrs) in Sprague-Dawley rat at 10 mg/kg, po
Format: ADME, organism-based
Design: time < 6 hr, dose 10 mg/kg, route oral
Conditions: plasma

Point of comparison: CCCCOC(=O)c1ccccc1-c1ccc(CN2CCC(COC(=O)c3c4n(c5ccccc35)CCCO4)CC2)cc1.CS(=O)(=O)O, AUC(0-t) at 6 h 313 ng·h/mL. Against it:
- COC(=O)c1ccccc1-c1ccc(CN2CCC(COC(=O)c3c4n(c5ccccc35)CCCO4)CC2)cc1.CS(=O)(=O)O — 3.5-fold higher, 1110 ng·h/mL

Biological target: T2, 5-hydroxytryptamine receptor 4
Test: Displacement of [3H]GR113808 from human 5HT4B receptor expressed in HEK293 cells
Format: cell-based
Conditions: not given

COC(=O)c1ccccc1-c1ccc(CN2CCC(COC(=O)c3c4n(c5ccccc35)CCCO4)CC2)cc1.CS(=O)(=O)O showed a Ki of 0.00126 nM.

System: not listed separately
Test: Octanol-buffer partition coefficient, log D of the compound at pH 7.4
Format: physicochemical
Conditions: not given

Point of comparison: CCCCOC(=O)c1ccccc1-c1ccc(CN2CCC(COC(=O)c3c4n(c5ccccc35)CCCO4)CC2)cc1.CS(=O)(=O)O, logD 4.9. Against it:
- CC(C)(C)C(=O)OCOC(=O)c1ccccc1-c1ccc(CN2CCC(COC(=O)c3c4n(c5ccccc35)CCCO4)CC2)cc1.CS(=O)(=O)O — lower, 4.7
- COC(=O)c1ccccc1-c1ccc(CN2CCC(COC(=O)c3c4n(c5ccccc35)CCCO4)CC2)cc1.CS(=O)(=O)O — lower, 4.5

Biological target: hERG (KCNH2) (Homo sapiens, UniProt Q12809)
Sequence (Q12809 whole entry): as the sequence (Q12809 whole entry) above
Test: Inhibition of human ERG expressed in HEK293 cells at 10 uM by patch-clamp technique
Format: cell-based
Conditions: HEK293 cells that express hERG

Molecule COC(=O)c1ccccc1-c1ccc(CN2CCC(COC(=O)c3c4n(c5ccccc35)CCCO4)CC2)cc1.CS(=O)(=O)O has an inhibition at 10 µM of 2%.

System: Rattus norvegicus
Test: Tmax in Sprague-Dawley rat assessed as 4'-((4-(((3,4-Dihydro-2H-[1,3]oxazino[3,2-a]indole-10-carbonyl)oxy)methyl)piperidin-1-yl)methyl)[1,1'-biphenyl]-2-carboxylic acid level at 10 mg/kg, po
Format: ADME, organism-based
Design: dose 10 mg/kg, route oral
Conditions: in vivo

Point of comparison: CCCCOC(=O)c1ccccc1-c1ccc(CN2CCC(COC(=O)c3c4n(c5ccccc35)CCCO4)CC2)cc1.CS(=O)(=O)O, Tmax 2 h. Against it:
- COC(=O)c1ccccc1-c1ccc(CN2CCC(COC(=O)c3c4n(c5ccccc35)CCCO4)CC2)cc1.CS(=O)(=O)O — 2-fold lower, 1 h
